# Test results reported in patent US10881677B2, “Composition for modulating IRAK1” (Agency for Science, Technology and Research, priority 2015, dated 2021).
# “Also recorded” adds a separate entry of the source.
# What was measured:
# p-IRAK1 (T209) = target: T1, p-IRAK1 (T209) (Homo sapiens, UniProt P51617); assay: Western blot of p-IRAK1 in immunoprecipitated IRAK1; format: cell-based; conditions: for induction of p-IRAK1 by chemotherapeutic agent: MDA231 (also SUM159) cells, PTX 5 nM, ADR 2 μM, Cisplatin 5 μM, up to 48 hours
# T1 construct: The whole cell lysate were extracted with the NE-PER kit (Pierce Biotechnology) and subjected to immunoprecipitation using 2 μg total-IRAK1 antibody; endogenous in cells; host or cells: TNBC cell lines (BT549, MB436, MB468, MDA231, MDA231-LM2, SUM159 and paclitaxel-resistant sublines)
# Experimental: (§1) Western Blotting was performed as described previously (8). IRAK1 (Cat no: #4359), IRAK4 (Cat no.: 4363), cleaved PARP (Cat no.: #9541), p38 MAPK (Cat no.: #9212), phospho-p38 MAPK (T180/Y182) (Cat no.: #9211), phospho-NF-KappaB p65 (S536) (Cat no. #3031) were purchased from Cell Signaling (Danvers, Mass.). Phospho-IRAK1 (T209) antibody was purchased from Assay Biotech (Sunnyvale, Calif., Cat no.: A1074) and phospho-IRAK1 (S376) antibody from Genetex (Irvine, Calif., Cat no.: GTX50994). MCL-1 antibody was purchased from Santa Cruz Biotechnology (Santa Cruz, Calif., Cat no.: sc-819). Actin was purchased from Sigma-Aldrich (St Louis, Mo., Cat no.: A5441). Detection of bands was performed with the ChemiDoc™ MP Imaging Systems (Bio-Rad, Hercules, Calif.) and bands were subjected to further densitometric analysis with Image Lab software (Version 4.1, Bio-rad, Hercules, Calif.).
# Co-IP was performed as described previously (9). The whole cell lysate were extracted with the NE-PER kit (Pierce Biotechnology) and subjected to immunoprecipitation using 2 μg total-IRAK1 antibody (Santa Cruz Biotech, Santa Cruz, Calif., Cat no.: sc-7883). The precipitated protein complex was captured using protein A-Agarose beads (Roche) and extensively washed with the washing buffer (50 mM Tris-HCl, 150 mM NaCl, 0.1% triton). The precipitated proteins were dissolved in SDS sample buffer along with 3 mM DTT, and subjected to immunoblotting analysis. Phospho-IRAK1 (T209) (Assay Biotechnology, Sunnyvale, Calif., Cat no.: A1074) was used for detection.
# [1] = test system: BT549, MB436, MB468, MDA231 and MDA231-LM2 cells; assay: 3D Matrigel growth of TNBC cells; format: cell-based; conditions: 5 μM IRAK-inh
# Experimental: 8-well chamber slides (Falcon, cat: 354656, Falcon) were precoated with 7.6 mg/mL growth factor-reduced Matrigel (Falcon, cat: 354230, Falcon) for 30 min at 37° C. Approximately 5×10^3 for MDA231, 1×10^4 for MB436 and MB468, 1.5×10^4 cells for BT549 with indicated treatments were seeded in each well with DMEM containing 10% (vol/vol) FBS and 150 μg/mL Matrigel. Medium were replenished every 3 days and cell growth was monitored every 3 days by imaging over duration of 10-14 days.
# [2] = test system: non-cancerous MCF10A and HMLE cells; assay: 3D Matrigel growth of non-cancerous cells; format: cell-based; conditions: 5 uM IRAK-inh, one week
# [3] = test system: BT549, MB436, MB468, MDA231 and MDA231-LM2 cells; assay: Mammosphere formation assay; format: cell-based; conditions: for mammosphere growth: 5 μM IRAK-inh; for mammosphere forming capacity after Paclitaxel pretreatment: MDA231 cells, 10 nM Paclitaxel 4 days, remaining viable cells
# Experimental: Active growing cells were treated with 0.05% trypsin for 10 minutes then passed through […] cell strainer to achieve single cell suspension. Cells were plated (MDA231: 1×10^4; MB436: 3×10^4; MB468: 4×10^4 cells/well, BT549: 3×10^4, MDA231-LM2: 3×10^4) seeded in 6-well ultra-low attachment plates (Corning, Corning, N.Y., cat: CLS3471) in Mammocult medium (Stem cell Technologies, Vancouver, BC, Canada), supplemented with fresh hydrocortisone (0.51 μg/ml) and heparin (1:500). Tumorspheres were cultured for 7 days prior to being counted and photographed. Imaging and quantification were done using GelCount™ apparatus and associated software (Oxford Optronix, Abingdon, UK). For serial passages of tumorsphere formation assay, the spheres were collected by gentle centrifugation, dissociated to single cells for passaging tumorspheres every 14 days and counted. Tumorspheres were photographed and quantified 7-12 days later using a GelCount Colony Counter after staining with INT.
# [4] = test system: IL-6, IL-8 and CXCL1 secretion; assay: ELISA of cytokine secretion; format: cell-based
# Experimental: IL-6, IL-8 and CXCL1 levels were assessed using ELISA assay kit (Boster Bio, Pleasanton, Calif.). Supernates of the mammosphere formation assay were collected after 10 days in culture. 1:50 dilution was performed on the supernates before quantifying the amount of cytokines according to the manufacturer's protocol. For cytokine antibody array, supernates collected from the NS or shIRAK1 MB436 mammospheres after 10 days in culture were used directly without further dilution. Semi-quantitative detection of 120 human cytokines and chemokines in the supernates were performed using the RayBio® C-series Human Cytokine Antibody Array C1000 (RayBiotech, Inc., Norcross, GS, Cat no.: #AAH-CYT-1000-2) as per manufacturer's instructions. Detection of dots was performed with the ChemiDoc™ MP Imaging Systems (Bio-Rad, Hercules, Calif.) and the intensity of dots were quantified by densitometric analysis using the ImageJ software. The raw numerical densitometry data is extracted and subjected to background subtraction before normalizing the signal for each cytokines against the Positive Control signals in each cytokine array.
# MDA231-LM2 cells = assay: Mammary fat pad MDA231-LM2 xenograft, lung metastasis by bioluminescence imaging; format: in vivo, NOD/SCID mice; conditions: for lung metastasis: IRAK-inh 4 mg/kg, qd, ip, 14 days, started 7 days before primary tumor removal
# [5] = test system: MDA231 and SUM159 parental and Paclitaxel-resistant sublines (PR); assay: Cell viability of parental and Paclitaxel-resistant sublines, combination treatment; format: cell-based
# Experimental: (§2) For cell proliferation assay, the optimal cell seeding was first determined empirically for all cell lines by examining the growth of a wide range of seeding densities in a 96-well format to identify conditions that permitted proliferation for 7 days. Cells were then plated at the optimal seeding density 24 h before siRNA or drug treatment in triplicate. Plates were incubated for 7 days at 37° C. in 5% CO2. Cells were then lysed with CellTiter-Glo (CTG) (Promega, Madison, Wis.) and chemiluminescent signal was detected with a microplate reader on Day 0, 1, 3, 5 and 7. In addition, an untreated plate of cells was harvested at the time of drug or siRNA addition (T0) to quantify the starting number of cells. CTG values obtained after the 7 day treatment were expressed as percentages of the T0 value and plotted against time of treatment.
# [6] = test system: SUM159-PR and MDA231-PR cells; assay: Apoptosis by FACS analysis of Sub-G1 cells; format: cell-based; conditions: Paclitaxel-resistant cells
# Experimental: Cell cycle analysis was done by DNA content quantification to quantify the sub-G1 population which is reflective of the extent of cell death. Briefly, the cells were fixed with 70% ethanol and stained with propidium iodide (50 μg/ml) staining. The stained cells were analyzed by FACScalibur (BD Bioscience) and quantified by using CellQuest software (BD bioscience).
# [7] = test system: p38-MCL-1 signaling in SUM159-PR cells; assay: Western blot of p-p38, MCL-1 and cleaved PARP; format: cell-based; conditions: inhibitor with Paclitaxel
# Experimental: as §1
# IRAK1 = IRAK1 (Homo sapiens, UniProt P51617); conditions: recently shown in Myelodysplastic Syndrome (ref 20); cited from earlier work
# SUM159PT = assay: Paclitaxel EC50 in parental SUM159PT cells; format: cell-based; conditions: Homo sapiens, SUM-159-PT, read-out: intrinsic EC50 to Paclitaxel
# Experimental: (§3) To establish the Paclitaxel acquired resistant TNBC cell lines, both SUM159PT and MDA231 cells were used. […] During these treatment cycles, only cells with a high intrinsic resistance or those which had acquired resistance to the drug survived. The cycle was further repeated until the stable resistant cell line (SUM159PR or MDA231PR) SUM159PR cells were stably maintained in 1 μM Paclitaxel and MDA231 in 75 nM of Paclitaxel with complete medium, making them at least ˜1000-fold more resistant than their parental cell lines.
# as §2
# SUM159PR or MDA231PR = assay: Acquired Paclitaxel resistance of stepwise-selected resistant sublines; format: cell-based; conditions: SUM159PR kept in 1 μM, MDA231PR in 75 nM Paclitaxel
# Experimental: as §3
# MDA231-PR cells = assay: Cell viability IC50 curves, sensitivity of paclitaxel-resistant cells to agents; format: cell-based
# From the text: FIG. 17. (a). IC50 curves showing cell viability after treatment with paclitaxel (PTX), vincristine (VCR), gemcitabine, doxorubicin (ADR), cisplatin, 5-fluorouracil (5-FU) and pacritinib in parental and pacitaxel-treated MDA-MB-231 (MDA231-PR) cells. (b). Graphical representation of relative sensitivities. (c).
# as §2
# [8] = test system: IL1B, IL6 and IL8 mRNAs in MDA231 cells; assay: qRT-PCR of cytokine mRNAs after chemotherapy; format: cell-based; conditions: 5 nM PTX, VCR 3 days
# Experimental: Total RNA was isolated by using Qiazol (Life technologies, Carlsbad, Calif.) and purified with the RNeasy Mini Kit (Qiagen, Valencia, Calif.). Reverse transcription and quantitative PCR assays were performed using High Capacity cDNA Archive kit and KAPA SyBr Fast qPCR kit (KAPA Biosystems, Wilmington, Mass.). For quantification of mRNA levels, 18S level was used as an internal control. All reactions were analyzed in an Applied Biosystems PRISM 7500 Fast Real-Time PCR system in 96-well plate format.
# [9] = test system: ALDH-positive cell population; assay: ALDEFLUOR assay; format: cell-based; conditions: after paclitaxel treatment
# Experimental: ALLEFLUOR assay was performed using the manufacturer's recommended protocol (ALDEFLUOR kit, Stemcell Technologies; catalogue number: #01700). In brief, one million single-cell suspensions were centrifuged and resuspended in ALDEFLUOR assay buffer supplied in the kit. Each sample cells were incubated with or without an ALDH-specific inhibitor 15 mM diethylaminobenzaldehyde in the presence of 0.15 mM ALDH substrate. ALDEFLUOR stainings were detected using fluorescein isothiocyanate channel of a FACSCalibur Flow Cytometry System (BD Biosciences) after 25 min incubation at 37° C. Diethylaminobenzaldehyde inhibitor control sample was used as sorting gate reflecting background fluorescence levels for each cell lines.
# T1 sequence (P51617 whole entry): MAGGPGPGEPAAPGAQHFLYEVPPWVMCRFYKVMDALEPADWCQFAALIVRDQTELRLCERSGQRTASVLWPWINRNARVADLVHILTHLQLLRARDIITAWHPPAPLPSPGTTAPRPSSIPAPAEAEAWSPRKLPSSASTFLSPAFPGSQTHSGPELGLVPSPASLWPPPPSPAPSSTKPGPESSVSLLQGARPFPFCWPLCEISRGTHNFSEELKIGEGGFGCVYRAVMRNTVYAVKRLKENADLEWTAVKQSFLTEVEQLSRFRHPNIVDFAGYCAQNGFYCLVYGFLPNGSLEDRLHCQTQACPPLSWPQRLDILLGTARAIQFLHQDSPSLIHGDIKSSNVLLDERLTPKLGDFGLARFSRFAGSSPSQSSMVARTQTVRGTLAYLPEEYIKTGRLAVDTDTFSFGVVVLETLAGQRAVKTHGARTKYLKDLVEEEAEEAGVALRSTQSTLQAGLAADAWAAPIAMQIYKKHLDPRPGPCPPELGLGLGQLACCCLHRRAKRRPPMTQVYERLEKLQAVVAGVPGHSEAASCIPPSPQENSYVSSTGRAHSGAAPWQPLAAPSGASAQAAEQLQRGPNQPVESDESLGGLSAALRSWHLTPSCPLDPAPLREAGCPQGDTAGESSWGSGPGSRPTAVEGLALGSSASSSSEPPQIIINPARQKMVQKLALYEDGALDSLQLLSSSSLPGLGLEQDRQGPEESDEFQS
# IRAK1, sequence (P51617 whole entry, species assumed): as the sequence (P51617 whole entry) above
smiles,measurement,setting,value
O=C(Nc1nc2ccccc2n1CCN1CCOCC1)c1cccc([N+](=O)[O-])c1 [IRAK-inh],p-IRAK1 in TNBC cells,p-IRAK1 (T209); IRAK-inh 5 μM,effectively abolished the p-IRAK1
same,IL-1β-induced p-IRAK1,"p-IRAK1 (T209); MB436 cells, recombinant IL-1β, IRAK-inh 5 uM",abrogated
same,3D Matrigel growth,"[1]; BT549, MB436 and MB468 cells",marked inhibition
same,3D Matrigel growth,"[1]; MDA231-LM2 cells, 7 days",impaired
same,3D Matrigel growth / morphology,[2],no effect
same,mammosphere growth,"[3]; BT549, MB436 and MB468 cells",marked inhibition
same,mammosphere growth,"[3]; MDA231-LM2 cells, 7 days",impaired
same,IL-8 and CXCL1 secretion,"[4]; IRAK-inh-sensitive TNBC cells, 5 μM IRAK-inh",strong reduction
same,"secretion of IL-6, IL-8 and CXCL1","[4]; Paclitaxel-resistant cells, IRAK1-inh plus Paclitaxel",reduced secretion
same,lung metastasis,MDA231-LM2 cells; listed as IRAK1-inh,markedly reduced
same,lung metastasis,MDA231-LM2 cells; listed as IRAK1-inn,effectively blocked
same,survival of mice carrying TNBC metastasis,MDA231-LM2 cells; IRAK-inh treatment,extended the survival
same,"cell viability, combined with sub-toxic Paclitaxel","[5]; both Paclitaxel-resistant cell lines (MDA231-PR, SUM159-PR), 5 μM IRAK-inh",dramatic loss of cell viability
same,cell death in combination with paclitaxel,"[5]; paclitaxel-resistant MDA231 cells, IRAK-inh 5 μM",dramatic cell death
same,"cell viability, inhibitor on its own","[5]; paclitaxel-resistant MDA231 cells, IRAK-inh 5 μM alone",no effect
same,"apoptosis, combined with Paclitaxel",[6],massive apoptosis
same,PARP cleavage,[7],increased PARP cleavage
same,p-p38 and MCL-1 expression,[7],decrease
same,activity against IRAK1,IRAK1,potent activity against IRAK1
CC(=O)O[C@H]1C(=O)[C@@]2(C)[C@H]([C@H](OC(=O)c3ccccc3)[C@]3(O)C[C@H](OC(=O)[C@H](O)[C@@H](NC(=O)c4ccccc4)c4ccccc4)C(C)=C1C3(C)C)[C@]1(OC(C)=O)CO[C@@H]1C[C@@H]2O [Paclitaxel],EC50,SUM159PT,3.88 nM
same,fold more resistant than parental cell lines,SUM159PR or MDA231PR,≥ 1000 fold
same,induction of p-IRAK1 by chemotherapeutic agent,p-IRAK1 (T209),marked induction
same,induction of p-IRAK1 by chemotherapeutic agent,p-IRAK1 (T209); listed as paclitaxel,marked induction
same,IRAK1 signaling activated by chemotherapeutic agents,p-IRAK1 (T209); discussion statement,activated
same,mammosphere forming capacity after Paclitaxel pretreatment,[3],increased mammosphere forming capacity
same,mammosphere forming capacity after Paclitaxel pretreatment,[3]; listed as paclitaxel,potentiated mammosphere formation
same,shift of the IC50 curve,MDA231-PR cells; MDA231-PR versus parental MDA-MB-231,marked right shift
same,sensitivity of paclitaxel-resistant cells to agent,MDA231-PR cells; paclitaxel-treated/resistant cells over-expressing p-IRAK1,markedly resistant; also recorded: no longer susceptible; also recorded: no longer responsive
same,"expression of IL1B, IL6 and IL8 mRNAs",[8],induced
same,ALDH-positive cell population,[9],expansion of the ALDH-positive cell population
